Measured values: patent US7625887B2, “Receptor agonists” (Takeda Pharmaceutical Company Limited, priority 2003, dated 2009)
Structures can show the parent of a compound that is named as a salt.

Experiments:
Type in all cases: cell-based
rat TGR5 = target: T1, rat TGR5 (Rattus norvegicus, UniProt Q80T02); experiment: cAMP production increasing activity in rat type TGR5 expressing CHO cells; conditions: 0.5 h, read-out: cAMP producing activity (control %)
T1 construct: expressed in transfected cells; host or cells: CHO cells
T1 sequence (Q80T02 1-329): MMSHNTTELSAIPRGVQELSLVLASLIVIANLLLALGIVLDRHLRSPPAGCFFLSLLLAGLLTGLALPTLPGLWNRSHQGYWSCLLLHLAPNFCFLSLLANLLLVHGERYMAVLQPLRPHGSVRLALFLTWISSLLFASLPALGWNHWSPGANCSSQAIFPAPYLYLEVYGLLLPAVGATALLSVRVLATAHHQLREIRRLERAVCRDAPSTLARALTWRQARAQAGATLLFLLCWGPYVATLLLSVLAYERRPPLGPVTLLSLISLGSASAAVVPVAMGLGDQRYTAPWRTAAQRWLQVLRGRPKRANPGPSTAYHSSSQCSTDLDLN
Protocol: (§1) After culture, the cells were detached with 0.5 mM EDTA/PBS, washed with PBS, and suspended in Buffer 1 (HBSS+0.1% BSA, 25 mM HEPES pH 7.3, 0.5 mM IBMX) at a density of 1×10^7 cells/ml. The obtained cell suspension (460 μl), anti-cAMP acceptor beads (23 μl) of AlphaScreen cAMP assay kit (Perkin Elmer) and Buffer 1 (667 μl) were mixed and dispensed to a white 96 well plate (Costar) by 10 μl. Then, a test compound diluted with Buffer 1 was added to each well by 10 μl. At this time, one row of the plate was free of the cell suspension but added with anti-cAMP acceptor beads (9 μl) and Buffer 1 (441 μl) alone, and serial dilutions of cAMP were added instead of the test compound and used as the standard. A mixture of the cell suspension and the test compound contained in the plate was allowed to react at room temperature for 30 min. […] The plate was shaken at room temperature for 2.5 hrs and fluorescence intensity was measured by Fusion α (Parkin Elmer), and the cAMP concentration of each well was calculated using the cAMP standard on each plate.

human TGR5 [1] = target: T2, human TGR5 (Homo sapiens, UniProt Q8TDU6); experiment: cAMP production increasing activity in human TGR5 expressing CHO cells; conditions: read-out: EC50 value (concentration necessary to make the cAMP production amount 50%)
T2 construct: expressed in transfected cells; host or cells: CHO cells
T2 sequence (Q8TDU6 1-330): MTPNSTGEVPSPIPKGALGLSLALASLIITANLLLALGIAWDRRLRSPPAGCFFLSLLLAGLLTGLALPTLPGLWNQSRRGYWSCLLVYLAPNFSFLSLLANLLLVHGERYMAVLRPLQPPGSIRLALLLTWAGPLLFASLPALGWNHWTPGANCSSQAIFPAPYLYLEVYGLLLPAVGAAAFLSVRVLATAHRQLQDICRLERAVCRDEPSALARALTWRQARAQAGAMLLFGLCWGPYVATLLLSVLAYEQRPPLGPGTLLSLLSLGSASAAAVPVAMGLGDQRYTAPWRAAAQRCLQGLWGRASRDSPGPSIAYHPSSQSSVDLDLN

guinea pig TGR5 = experiment: cAMP production increasing activity in guinea pig TGR5 expressing CHO cells; conditions: test compound 2 μM; 10 μM lithocholic acid = 100%; average of 3 groups
Protocol: as §1, with “The guinea pig type TGR5 expressing CHO cells were seeded in one 150 cm^2 flask at 1×10^7 cells, and cultured overnight at 37° C., 5% CO2. After” for “After”

human TGR5 [2] = target: T2, human TGR5; experiment: cAMP production increasing activity in human TGR5 expressing CHO cells; conditions: test compound 1 μM, 30 min; 1 μM lithocholic acid = 100%, no addition = 0%; average of 3 groups
Protocol: As the assay buffer, Hank's balanced salt solution (HBSS, Invitrogen) supplemented with 0.1% bovine serum albumin (BSA, Sigma) and 0.5 mM 3-isobutyl-1-methylxanthine (IBMX, Sigma) was used. A test compound sample (1 μM) diluted with the assay buffer was added to the cells. The cells were incubated at 37° C. for 30 min. and the supernatant was suctioned. The intracellular cAMP amount increased by the stimulation of the test compound was quantitatively determined using a HitHunter™ EFC Cyclic AMP Chemiluminescence Assay Kit (ABI) kit.

Row | SMILES | activation at 2 µM (rat TGR5) [%] | EC50 (human TGR5 [1]) [µM] | cAMP producing activity (control %) (guinea pig TGR5) | cAMP production increasing activity (control %) (human TGR5 [2])
1 | CC(C)(C)CN1C(=O)C(CC(=O)NCc2ccccc2F)N(Cc2ccncc2)Cc2ccccc21 (centres unmarked) [Example 30B, N-(2-fluorobenzyl)-2-[1-neopentyl-2-oxo-4-(pyridin-4-ylmethyl)-2,3,4,5-tetrahydro-1H-1,4-benzodiazepin-3-yl]acetamide] | 108 | < 0.1 | – | –
2 | COC(=O)NCc1cccc(C2OC(CC(=O)NCC3CCCCC3)C(=O)N(CC(C)(C)C)c3ccc(Cl)cc32)c1 (stereo not drawn) [Example 30, methyl [3-[3,5-trans-7-chloro-3-[2-[(cyclohexylmethyl)amino]-2-oxoethyl]-1-neopentyl-2-oxo-1,2,3,5-tetrahydro-4,1-benzoxazepin-5-yl]benzyl]carbamate] | 114 | < 0.1 | 86 | –
3 | O=S(=O)(c1cccc2ccccc12)N1CCOc2nccc(-c3ccccc3)c2C1 [Example 42C, 4-(1-naphthylsulfonyl)-6-phenyl-2,3,4,5-tetrahydropyrido[3,2-f][1,4]oxazepine] | – | < 0.1 | 104 | –
4 | CC(C)(C)CN1C(=O)C(CC(=O)NCc2ccccc2F)OC(c2cccc(Cn3ccnc3)c2)c2cc(Cl)ccc21 (stereo not drawn) [Example 60, 2-[3,5-trans-7-chloro-5-[3-(1H-imidazol-1-ylmethyl)phenyl]-1-neopentyl-2-oxo-1,2,3,5-tetrahydro-4,1-benzoxazepin-3-yl]-N-(2-fluorobenzyl)acetamide] | – | < 0.1 | – | –
5 | CC(C)(C)CN1C(=O)[C@@H](CC(=O)NCc2ccccc2F)O[C@@H](c2cccc(CNS(C)(=O)=O)c2)c2cc(Cl)ccc21 (relative stereo) [Reference Example 4, 2-[3,5-trans-7-chloro-5-[3-(methanesulfonylaminomethyl)phenyl]-1-neopentyl-2-oxo-1,2,3,5-tetrahydro-4,1-benzoxazepin-3-yl]-N-(2-fluorobenzyl)acetamide] | – | – | – | 80
6 | CC(C)(C)CN1C(=O)[C@@H](CC(=O)NCc2ccccc2F)O[C@@H](c2cccc(N)c2)c2cc(Cl)ccc21 (relative stereo) [Reference Example 1, 2-[3,5-trans-5-(3-aminophenyl)-7-chloro-1-neopentyl-2-oxo-1,2,3,5-tetrahydro-4,1-benzoxazepin-3-yl]-N-(2-fluorobenzyl)acetamide] | – | – | – | 97
7 | CC(C)(C)CN1C(=O)[C@@H](CC(=O)NCc2ccccc2F)O[C@@H](c2cccc(CO)c2)c2cc(Cl)ccc21 (relative stereo) [Reference Example 9, 2-[3,5-trans-7-chloro-5-[3-(hydroxymethyl)phenyl]-1-neopentyl-2-oxo-1,2,3,5-tetrahydro-4,1-benzoxazepin-3-yl]-N-(2-fluorobenzyl)acetamide] | – | – | – | 128
8 | Cc1cc(C(=O)N2Cc3ccccc3N(CC(C)C)C(=O)C2CC(=O)NCc2ccccc2F)ccn1 (centres unmarked) [Example 23B, N-(2-fluorobenzyl)-2-[1-isobutyl-4-(2-methylisonicotinoyl)-2-oxo-2,3,4,5-tetrahydro-1H-1,4-benzodiazepin-3-yl]acetamide] | – | < 0.1 | – | –
9 | Fc1ccc(-c2ccnc3c2CN(Cc2cc(C(F)(F)F)cc(C(F)(F)F)c2)CCCCO3)cc1 [Example 61C, 6-[3,5-bis(trifluoromethyl)benzyl]-8-(4-fluorophenyl)-2,3,4,5,6,7-hexahydropyrido[2,3-b][1,5]oxazonine] | 101 | < 0.1 | – | –
10 | FC(F)(F)c1cc(CCN2CCOc3nccc(-c4ccccc4)c3C2)cc(C(F)(F)F)c1 [Example 45C, 4-{2-[3,5-bis(trifluoromethyl)phenyl]ethyl}-6-phenyl-2,3,4,5-tetrahydropyrido[3,2-f][1,4]oxazepine hydrochloride] | – | < 0.1 | – | –
11 | CC(C)(C)CN1C(=O)[C@@H](CC(=O)NCc2ccccc2F)O[C@@H](c2cccc(C3OCCO3)c2)c2cc(Cl)ccc21 (relative stereo) [Reference Example 2, 2-[3,5-trans-7-chloro-5-[3-([1,3]dioxolan-2-yl)phenyl]-1-neopentyl-2-oxo-1,2,3,5-tetrahydro-4,1-benzoxazepin-3-yl]-N-(2-fluorobenzyl)acetamide] | – | – | – | 108
12 | COC(=O)NCc1cccc(C2OC(CC(=O)NCc3ccccc3F)C(=O)N(CC(C)C)c3ccc(Cl)cc32)c1 (stereo not drawn) [Example 43, methyl [3-[3,5-trans-7-chloro-3-[2-[(2-fluorobenzyl)amino]-2-oxoethyl]-1-isobutyl-2-oxo-1,2,3,5-tetrahydro-4,1-benzoxazepin-5-yl]benzyl]carbamate] | – | < 0.1 | 82 | –
13 | O=C(c1cc(Cl)cc(Cl)c1)N1CCOc2nccc(-c3ccccc3)c2C1 [Example 32C, 4-(3,5-dichlorobenzoyl)-6-phenyl-2,3,4,5-tetrahydropyrido[3,2-f][1,4]oxazepine] | – | – | 89 | –
14 | O=S(=O)(c1cc(C(F)(F)F)cc(C(F)(F)F)c1)N1CCCOc2nccc(-c3ccc(F)cc3)c2C1 [Example 60C, 5-{[3,5-bis(trifluoromethyl)phenyl]sulfonyl}-7-(4-fluorophenyl)-3,4,5,6-tetrahydro-2H-pyrido[2,3-b][1,5]oxazocine] | – | < 0.1 | – | –
15 | CC(=O)NCc1cccc(C2OC(CC(=O)NCC3CCCCCC3)C(=O)N(CC(C)(C)C)c3ccc(Cl)cc32)c1 (stereo not drawn) [Example 17, 2-[3,5-trans-5-[3-(acetylaminomethyl)phenyl]-7-chloro-1-neopentyl-2-oxo-1,2,3,5-tetrahydro-4,1-benzoxazepin-3-yl]-N-(cycloheptylmethyl)acetamide] | 107 | < 0.1 | – | –
16 | CC(C)(C)CN1C(=O)[C@@H](CC(=O)NCc2ccccc2F)O[C@@H](c2cccc(CNC(=O)C(F)(F)F)c2)c2cc(Cl)ccc21 (relative stereo) [Reference Example 5, N-[3-[3,5-trans-7-chloro-3-[2-[(2-fluorobenzyl)amino]-2-oxoethyl]-1-neopentyl-2-oxo-1,2,3,5-tetrahydro-4,1-benzoxazepin-5-yl]benzyl]-2,2,2-trifluoroacetamide] | – | – | – | 116
